Measured values: patent US12390409B2 (NeueRe, LLC, priority 2018, dated 2025)

Key:
human (adult male) skin = assay: TEWL recovery after skin barrier disruption by 99.9% DMSO, upper thigh; type: in vivo; conditions: 2.0 mM ambroxol in 99.9% DMSO
From the text: Dimethyl sulfoxide (DMSO) is a well-known skin permeability enhancer that is thought to act by disrupting ceramide-containing lipid bilayers of the stratum corneum and thereby compromising the permeability barrier of the skin (Agner and Serup, Clin. Expt. Dermatology 14:214 [1989]; Notman et al Biophysical Journal 93:2056 [2007]). Among its many protective functions, this lipid barrier regulates transepidermal water loss (TEWL) and is vital for the prevention of skin dryness in mammals. Thus, it is accepted by researchers in the field, that measurements of TEWL can be used to directly assay the integrity of the skin permeability barrier (Fluhr et al Experimental Dermatology 15:483 [2006]).
All experiments were conducted in a narrow range of relative humidity (30-40%) and at stable room temperatures of 18-22° C.
Transepidermal water loss (TEWL) measurements, in units of g/m^2-h, were taken at various time points after applying the solutions (at t=0) to the skin sites. TEWL values were assessed using a wireless closed-chamber system (VapoMeter, Delphin Technologies Ltd., Kuopio, Finland) that automatically calculates water evaporation rates over a small area (˜1.3 cm^2); each measurement took about 10 s (Fluhr et al Experimental Dermatology 15:483 [2006]). […] All time points were measured in duplicate or triplicate. […] The improvement in TEWL, a difference of 4-6 g/m^2-h between the two curves, then maintains itself over the remaining course of the experiment. […] Shown for each point are the error bars (standard deviation of duplicate or triplicate measurements); for some points the error bars are less visible because they were smaller than the diameter of the symbol representing that point.]

human skin = assay: TEWL recovery after disruption by 60:40 DMSO:water formulation, upper thigh; type: in vivo; conditions: 2.0 mM ambroxol in 60:40 (v/v) DMSO:water
Protocol: 60% DMSO has been reported to be the minimum concentration of DMSO needed to disrupt ceramide-containing lipid bilayers in skin (Notman et al Biophysical Journal 93:2056 [2007]).
All time points were measured in duplicate or triplicate.
Also like in the experiment shown in FIG. 1, there is an enduring improvement of approximately 5 g/m^2-h in the rate of water loss of the ambroxol-treated skin relative to skin treated with the DMSO:water formulation alone. […] Shown for each point are the error bars (standard deviation of duplicate or triplicate measurements); for some points the error bars are less visible because they were smaller than the diameter of the symbol representing that point.]

skin of volar forearm = assay: Dose-ranging study of ambroxol on TEWL, 99.9% DMSO, volar forearm; type: in vivo, human; conditions: ambroxol concentrations much lower than 2.0 mM (20 micromolar to 2.0 mM tested) in 99.9% DMSO, 10 microliter, 1 hr and 10 hr post-application
From the text: Apart from these additional concentrations, conditions and the formulation (99.9% DMSO) were essentially the same as those described in Example 1, except in this experiment 10 microliter aliquots were spread and the skin region tested was on the volar forearm.
The data in FIG. 3 are presented as histograms, with only start points (at 1 hr post-application) and end-points (at 10 hr post application) shown. Two things are notable about this experiment. […] This may reflect the relative delicacy of volar forearm skin compared to skin of the upper thigh, such that the same treatment may be more or less harsh depending on the skin area treated. […] [Symbols: Open rectangles, skin TEWL measured at 1 hr post-application; hatched rectangles, skin TEWL measured at 10 hr post-application; dashed line, average TEWL value (7.8±1.1 g/m^2-hr) of untreated skin from areas adjacent to the treatment sites. All measurements were taken in quadruplicate (n=4) or quintuplicate (n=5). Shown for each value are the error bars (standard deviation of quadruplicate or quintuplicate measurements.]

skin = conditions: other case reports, positive patch test; cited from earlier work

With `Nc1c(Br)cc(Br)cc1CN[C@H]1CC[C@H](O)CC1` [ambroxol, trans-4-(2-amino-3,5-dibromobenzylamino) cyclohexanol] the “improvement in TEWL, difference between ambroxol and control (DMSO only) curves” value (human (adult male) skin; 20 microliter on about 2 cm^2 upper thigh skin, maintained after the burst over the remaining course) was 4-6 g/m^2-h, the “period of the rapid burst of skin barrier healing” value (human (adult male) skin; upper thigh) was “approximately 30 minutes” and the “time post-application of sudden drop in TEWL” value (human (adult male) skin; upper thigh) was “about 60 minutes”. The “time of the burst of TEWL improvement” value (human skin) was “in the first hour post-application”, the “ameliorating the increase in TEWL caused by the DMSO insult” value (skin of volar forearm) was “positive results” and the “adverse skin reaction in case reports” value (skin) was “systemic contact dermatitis”.
